The target in one data set is T1, human 5HT1A receptor (Homo sapiens, UniProt P08908).
T1 construct: expressed in transfected cells; host or cells: HEK cells (G418 selection)
T1 sequence (P08908 1-422): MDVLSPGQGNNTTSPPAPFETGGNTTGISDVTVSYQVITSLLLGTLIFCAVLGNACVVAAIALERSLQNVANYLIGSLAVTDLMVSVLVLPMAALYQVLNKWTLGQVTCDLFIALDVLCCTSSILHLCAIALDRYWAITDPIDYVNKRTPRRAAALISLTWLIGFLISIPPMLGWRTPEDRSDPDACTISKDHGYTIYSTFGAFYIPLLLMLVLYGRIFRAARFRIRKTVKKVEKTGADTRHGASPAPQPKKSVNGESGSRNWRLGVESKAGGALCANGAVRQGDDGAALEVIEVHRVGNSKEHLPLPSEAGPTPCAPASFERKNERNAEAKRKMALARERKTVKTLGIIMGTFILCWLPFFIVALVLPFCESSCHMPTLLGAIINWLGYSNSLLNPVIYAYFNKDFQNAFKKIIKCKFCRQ
Briefly: h5HT1A receptors: [3H]8-OH-DPAT binding. As to conditions: cells printed in μM under a head in nM; read-out: 5-HT1A [^3H] 8—OH DPAT Ki(nM) ± SEM. On the procedure: Human embryonic kidney cells expressing the human 5HT1A receptor (HEK-h5HT1A) were used. The cells were grown to confluence in DMEM containing 10% FetalClone® (abbreviated as FC—source: HyClone), 0.05% penicillin-streptomycin (pen-strep), and 300 μg/mL of Geneticin (G418). The cells were scraped from 150 mm plates into phosphate-buffered saline and centrifuged at 270×g, 1200 rpm, for 10 minutes. The cell pellet was homogenized in 50 mM Tris-HCl (pH 7.7) with a Polytron, and centrifuged at 27,000×g. […] The final pellet was resuspended at 0.5 mg protein/mL in assay buffer (25 mM Tris-HCl, pH 7.4, containing 100 μM ascorbic acid and 10 μM pargyline). The assay was performed in duplicate in a 96-well plate. Serial dilutions of test compounds were made using the Biomek 2000 robotics system. […] Nonspecific binding was determined with 1.0 μM dihydroergotamine. The plates were incubated at room temperature for 60 minutes and then filtered through polyethylenimine-soaked (0.05%) “A” filtermats on a Tomtec cell harvester. The filters were washed with cold 50 mM Tris buffer (pH 7.7) for 6 sec, dried, spotted with scintillation cocktail, and counted for 2 minutes after a 4 hour delay on a Wallac Betaplate 1205 liquid scintillation counter.

A further data set deals with T2, human 5HT2A receptor (Homo sapiens, UniProt P28223).
T2 construct: expressed in transfected cells; host or cells: HEK cells
T2 sequence (P28223 whole entry): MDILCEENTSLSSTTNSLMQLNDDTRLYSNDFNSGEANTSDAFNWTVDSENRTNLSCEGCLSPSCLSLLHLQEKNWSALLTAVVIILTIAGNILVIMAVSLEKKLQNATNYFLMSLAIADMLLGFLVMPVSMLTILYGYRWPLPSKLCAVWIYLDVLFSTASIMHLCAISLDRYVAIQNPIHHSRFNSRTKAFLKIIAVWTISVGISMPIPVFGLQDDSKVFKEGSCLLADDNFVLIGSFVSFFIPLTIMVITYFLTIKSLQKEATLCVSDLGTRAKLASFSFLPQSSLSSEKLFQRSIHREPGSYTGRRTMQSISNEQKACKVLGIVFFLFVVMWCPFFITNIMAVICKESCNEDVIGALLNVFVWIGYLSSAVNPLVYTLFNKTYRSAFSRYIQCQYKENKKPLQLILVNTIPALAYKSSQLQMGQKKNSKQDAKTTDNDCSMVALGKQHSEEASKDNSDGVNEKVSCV
Kind of data set: h5HT2A receptors: [125I]DOI binding. As to conditions: read-out: 5-HT2A [^125I]DOI Ki (nM) ± SEM. On the procedure: Method: Human embryonic kidney cells expressing the human 5HT2A receptor (HEK-h5HT2A) or human 5HT2C receptor (HEK-h5HT2C) were used. The cells were grown until confluent on 15 cm plates. Media was removed, cells were washed with phosphate-buffered saline (PBS), scraped into 2 ml PBS and frozen at −20° C. until needed. Cell suspension was thawed, 10 ml assay buffer (50 mM Tris, pH 7.4 at 37° C., with 0.1% ascorbic acid and 5 mM CaCl2) was added per plate of cells, and polytronned at setting 6 for 5 sec. The homogenate was centrifuged at 15,500 rpm for 20 min. […] The final pellet was resuspended in 2 ml buffer/plate of cells.
The reaction was incubated for 1 hour at 37° C., and terminated by filtration through Wallac A filtermats presoaked in 0.05% polyethylenimine using a Tomtec 96-well harvester. Radioactivity remaining on filters was counted in a Wallac betaplate reader. IC50 values were calculated using GraphPad Prism. IC50 values were converted using the Cheng-Prusoff equation.

The target of data set [1] is T3, VMAT2 (Homo sapiens, UniProt Q05940). Briefly: hVMAT2 [3H]DTBZ ([3H]DHTB) binding assay. Also on record: expressed in transfected cells; host or cells: HEK (human embryonic kidney) cells. On the procedure:
(§1) Membrane preparation for binding, uptake and release assays using HEK-hVMAT2 cells: Human embryonic kidney cells expressing the human vesicular monoamine transporter 2 (HEK-hVMAT2) were used. HEK-hVMAT2 cells were grown until confluent. The media was removed from plates, solution A [sucrose (0.32 M) with protease inhibitors] was added to the plate, and cells were scraped from plate. Cells were homogenized with 12 strokes of a glass/glass homogenizer. The homogenate was centrifuged at 800×g for 10 min. The supernatant was removed and saved, and the pellet was resuspended, homogenized and centrifuged as above. The supernatants were combined and centrifuged at 10,000×g for 20 min. The pellet was resuspended in solution A (0.75 ml). The membranes were osmotically shocked by addition of 2.625 ml ice cold water and homogenized by 5 strokes of a glass/Teflon homogenizer. The osmolarity was reestablished with addition of Tris (338 μl, 0.25M, pH 7.4 at 4° C.), sodium potassium tartrate (338 μl, 1.0 M), and MgSO4 (4 μl, 0.9M). The homogenate was centrifuged at 20,000×g for 20 min.
Binding was terminated by filtration over Whatman GF/C filters using a Tomtec 96-well cell harvester. Filters were washed for six seconds with ice-cold saline. Scintillation fluid was added to each square and radioactivity remaining on the filters was determined using a Wallac μ- or beta-plate reader. Specific binding was defined as the difference in binding observed in the presence and absence of Ro4-1284 (10 μM, generously supplied by Hoffman LaRoche). Three or more independent competition experiments were conducted with duplicate determinations.

Data set [2] has as its target T3, VMAT2. Kind of data set: hVMAT2 5HT Uptake. Format: biochemical. The arrangement: expressed in transfected cells; host or cells: HEK (human embryonic kidney) cells. On the procedure: as §1
Setting [3] is: [^3H]5HT uptake, HEK-hVMAT2 preparation, read-out: hVMAT2 5HT Uptake IC50 (nM) ± SEM.
Where [4] appears, read: cells printed in μM under a head in nM.
Setting [5] is: cells printed in μM under a head in nM, HEK-hVMAT2 membranes.
The mark [6] stands for this setting: cells printed in μM under a head in nM, read-out: hVMAT2 5HT Uptake IC50 (nM) ± SEM.

The values that follow come from patent US9546151B2, “VMAT inhibitory compounds” (Oregon Health & Science University, priority 2014, dated 2017).

Like-named read-outs stand apart in the source and are kept apart here.

T3 sequence (Q05940 whole entry): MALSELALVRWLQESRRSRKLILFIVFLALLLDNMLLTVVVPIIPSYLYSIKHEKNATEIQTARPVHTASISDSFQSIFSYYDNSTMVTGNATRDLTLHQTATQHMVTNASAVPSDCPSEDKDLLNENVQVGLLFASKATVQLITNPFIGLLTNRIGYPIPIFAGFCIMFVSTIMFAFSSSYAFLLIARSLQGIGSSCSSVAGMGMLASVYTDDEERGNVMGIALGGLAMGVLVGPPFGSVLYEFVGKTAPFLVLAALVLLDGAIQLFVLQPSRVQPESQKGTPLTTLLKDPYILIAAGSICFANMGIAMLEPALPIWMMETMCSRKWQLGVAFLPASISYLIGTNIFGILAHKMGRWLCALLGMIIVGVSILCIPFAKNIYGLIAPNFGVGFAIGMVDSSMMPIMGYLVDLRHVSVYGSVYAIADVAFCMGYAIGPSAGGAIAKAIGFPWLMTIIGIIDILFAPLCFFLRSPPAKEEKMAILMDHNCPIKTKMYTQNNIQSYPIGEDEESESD

Turning to `CCOC(=O)[C@@H]1CN(CCn2c(=O)[nH]c3ccccc3c2=O)CC[C@@H]1c1ccccc1` (racemic) [Compound 5a, (±) syn-ethyl 1-(2-(2,4-dioxo-1,2-dihydroquinazolin-3(4H)-yl)ethyl)-4-phenylpiperidine-3-carboxylate], the results for the Ki on human 5HT1A receptor, on human 5HT2A receptor (HEK-h5HT2A homogenate) and on VMAT2 [1] were > 10 µM, 37.3 ± 8.5 nM and 1.17 ± 0.314 µM, respectively. For the same compound, the IC50 (as a rule, the concentration at which inhibition is half-maximal) at VMAT2 [2] (setting [3]) turned out to be 17 nM.
`CCOC(=O)[C@H]1CN(CCn2c(=O)[nH]c3ccccc3c2=O)CC[C@H]1c1cccc(N(C)C)c1` (racemic) [Compound 5aa, (±)-syn-Ethyl 4-(3-(dimethylamino)phenyl)-1-(2-(2,4-dioxo-1,2-dihydroquinazolin-3(4H),-yl)ethyl) piperidine-3-carboxylate]: the Ki (in general, the equilibrium dissociation constant of an inhibitor or competing ligand from its target) on human 5HT1A receptor is > 10 µM; at human 5HT2A receptor (setting [4]), > 10000 nM; on VMAT2 [1] (setting [5]) it was > 10 µM. On VMAT2 [2] (setting [6]), the IC50 was > 5000 nM.
In the case of `CCOC(=O)[C@@H]1CN(CCn2c(=O)[nH]c3ccccc3c2=O)CC[C@@H]1c1ccc(C)cc1` (racemic) [Compound 5b, (±) syn-ethyl 1-(2-(2,4-dioxo-1,2-dihydroquinazolin-3(4H)-yl)ethyl)-4-(p-tolyl)piperidine-3-carboxylate], the Ki on human 5HT1A receptor was > 10 µM; at human 5HT2A receptor (setting [4]) it was > 10000 nM; on VMAT2 [1] (setting [5]) it was > 9 µM. Also, the IC50 on VMAT2 [2] (setting [3]) came out at 313 ± 54 nM.
Consider `CCOC(=O)[C@@H]1CN(CCn2c(=O)[nH]c3ccccc3c2=O)CC[C@@H]1c1ccc(F)cc1` (racemic) [Compound 5d, (±) syn-ethyl 1-(2-(2,4-dioxo-1,2-dihydroquinazolin-3(4H)-yl)ethyl)-4-(4-fluorophenyl)piperidine-3-carboxylate], for which the Ki is > 9 µM at human 5HT1A receptor and > 2000 nM on human 5HT2A receptor (setting [4]).
`CCOC(=O)[C@@H]1CN(CCn2c(=O)[nH]c3ccccc3c2=O)CC[C@@H]1c1ccc(C(F)(F)F)cc1` (racemic) [Compound 5f, (±) syn-ethyl 1-(2-(2,4-dioxo-1,2-dihydroquinazolin-3(4H)-yl)ethyl)-4-(4-(trifluoromethyl)phenyl)piperidine-3-carboxylate]: the Ki on human 5HT1A receptor was > 10 µM; on human 5HT2A receptor (setting [4]), > 10000 nM; on VMAT2 [1] (setting [5]) it was > 10 µM. Further, on VMAT2 [2] (setting [3]), the IC50 amounted to 416 ± 43 nM.
Turning to `CCOC(=O)[C@@H]1CN(CCn2c(=O)[nH]c3ccccc3c2=O)CC[C@@H]1c1cccc(C(F)(F)F)c1` (racemic) [Compound 5g, (±) syn-ethyl 1-(2-(2,4-dioxo-1,2-dihydroquinazolin-3(4H)-yl)ethyl)-4-(3-(trifluoromethyl)phenyl)piperidine-3-carboxylate], the inhibition constant Ki was > 10 µM on human 5HT1A receptor, > 10000 nM on human 5HT2A receptor (setting [4]) and > 10 µM on VMAT2 [1] (setting [5]). On VMAT2 [2] (setting [3]), the IC50 was 166 ± 6 nM.
On to `CCOC(=O)c1ccc([C@H]2CCN(CCn3c(=O)[nH]c4ccccc4c3=O)C[C@H]2C(=O)OCC)cc1` (racemic) [Compound 5l, (±) syn-ethyl 1-(2-(2,4-dioxo-1,2-dihydroquinazolin-3(4H)-yl)ethyl)-4-(4-(ethoxycarbonyl)phenyl)piperidine-3-carboxylate], for which the Ki on human 5HT1A receptor was > 10 µM; at human 5HT2A receptor (setting [4]), > 10000 nM.
In the case of `CCOC(=O)[C@@H]1CN(CCn2c(=O)c3ccccc3n(C)c2=O)CC[C@@H]1c1cccc(F)c1` (racemic) [Compound 6d, (±)-syn Ethyl 4-(3-fluorophenyl)-1-(2-(1-methyl-2,4-dioxo-1,2-dihydroquinazolin-3(4H)-yl)ethyl)piperidine-3-carboxylate], the melting point (in general, the temperature of the solid-liquid transition) lay within 101.2 to 102.5 °C. Moreover, on human 5HT1A receptor, the Ki was > 10 µM. Besides, the Ki at VMAT2 [1] (setting [5]) is > 9 µM. Moreover, the IC50 at VMAT2 [2] (setting [3]) came out at 89 ± 12 nM.
`CCOC(=O)[C@@H]1CN(CCn2c(=O)[nH]c3sccc3c2=O)CC[C@@H]1c1ccc(C(F)(F)F)cc1` (racemic) [Compound 7c, (±) syn-ethyl 1-(2-(2,4-dioxo-1,2-dihydrothieno[2,3-d]pyrimidin-3(4H)-yl)ethyl)-4-(4-(trifluoromethyl)phenyl)piperidine-3-carboxylate] showed a melting point of 190.3 to 191.5 °C. The Ki on VMAT2 [1] (setting [5]) was > 10 µM. Besides, the IC50 on VMAT2 [2] (setting [3]) came out at 1470 ± 65 nM.
For the compound `CC1CN(CCn2c(=O)[nH]c3ccccc3c2=O)CCC1C(=O)c1ccc(F)cc1` (racemic) [R1=H, R2=α/β-CH3], the Ki on human 5HT1A receptor was > 10 µM; on human 5HT2A receptor (HEK-h5HT2A homogenate), 45.9 ± 12.4 nM; on VMAT2 [1] (HEK-hVMAT2 membranes, series 5 ligands tested as hydrochloride salts) it was 0.276 ± 0.024 µM. Also, the IC50 on VMAT2 [2] (setting [3]) was 333 ± 106 nM.
In turn, `CCOC(=O)[C@H]1CN(CCCn2c(=O)[nH]c3ccccc3c2=O)CC[C@H]1c1ccc(F)cc1` (racemic) [n=2, (±)-syn-Ethyl 1-(3-(2,4-dioxo-1,2-dihydroquinazolin-3(4H)-yl)propyl)-4-(4-fluorophenyl)piperidine-3-carboxylate] displayed a melting point of 171.8 to 172.4 °C. Further, at human 5HT1A receptor, the Ki is > 10 µM. For the same compound, the Ki on VMAT2 [1] is > 10 µM. At VMAT2 [2], this compound had an IC50 of 43 ± 4 nM.
The compound `CCOC(=O)[C@H]1CN(CCCCn2c(=O)[nH]c3ccccc3c2=O)CC[C@H]1c1ccc(F)cc1` (racemic) [n=3, (±)-syn-Ethyl 1-(4-(2,4-dioxo-1,2-dihydroquinazolin-3(4H)-yl)butyl)-4-(4-fluorophenyl)piperidine-3-carboxylate] displayed a melting point of 148.5 to 149.7 °C. The Ki at VMAT2 [1] is > 10 µM. For the same compound, the IC50 against VMAT2 [2] was 133 ± 52 nM.
As for `CCOC(=O)[C@@H]1CN(CCn2c(=O)[nH]c3sccc3c2=O)CC[C@@H]1c1cccc(C(F)(F)F)c1` (relative stereo) [Compound 7d, syn-ethyl 1-(2-(2,4-dioxo-1,2-dihydrothieno[2,3-d]pyrimidin-3(4H)-yl)ethyl)-4-(3-(trifluoromethyl)phenyl)piperidine-3-carboxylate], the melting point fell in the range of 153.5 to 156.5 °C. Besides, the Ki on VMAT2 [1] (setting [5]) was > 10 µM. For the same compound, on VMAT2 [2] (setting [3]), the IC50 worked out at 342 ± 103 nM.
On to `CC1CN(CCn2c(=O)[nH]c3ccccc3c2=O)CCC1C(=O)c1ccc(F)cc1` (single isomer, unassigned) [R1=H, R2=α-CH3], for which the Ki is > 5 µM on human 5HT1A receptor, 19.8 ± 5.8 nM at human 5HT2A receptor (HEK-h5HT2A homogenate) and > 6.4 µM on VMAT2 [1] (setting [5]). In addition, on VMAT2 [2] (setting [6]), the IC50 was > 7300 nM.
